Measurements: patent publication US8481749B2, “N-(tetrazol-5-yl)- and N-(triazol-5-yl)arylcarboxamides and their use as herbicides” (Bayer Cropscience AG, priority 2010, dated 2013)

The compounds below were run on Veronica persica (assay: Pre-emergence herbicidal action against harmful plants). Conditions: 504 h, application rate 80 g/ha, visual assessment after 3 weeks vs untreated controls (100%=plants have died, 0%=like control), read-out: herbicidal activity in percent against Veronica persica.
Type: in vivo

Question: With `CCn1nnnc1NC(=O)c1ccc(C#N)c(SC)c1C` [Compound 5-392] as the compound, how does the pest or weed control at 80 g/ha read?
Answer: Its pest or weed control at 80 g/ha is ≥ 80%.

Question: `CCn1nnnc1NC(=O)c1ccc(S(C)(=O)=O)c(SC)c1C(F)(F)F` [Compound 5-597] was tested. Which pest or weed control at 80 g/ha did it give?
Answer: The pest or weed control at 80 g/ha was ≥ 80%.

Question: `CCn1nnnc1NC(=O)c1ccc(S(C)(=O)=O)c(OC)c1Cl` [Compound 5-276] was tested. Which pest or weed control at 80 g/ha did it give?
Answer: Its pest or weed control at 80 g/ha is ≥ 80%.

Question: How did the pest or weed control at 80 g/ha turn out when `CCSc1c(Cl)ccc(C(=O)Nc2nnnn2CC)c1C` [Compound 5-122] was run?
Answer: The pest or weed control at 80 g/ha was ≥ 80%.

Question: Which pest or weed control at 80 g/ha does the source give for `CCn1ncnc1NC(=O)c1ccc(C(F)(F)F)c(S(C)(=O)=O)c1C` [Compound 2-148] here?
Answer: Its pest or weed control at 80 g/ha is ≥ 80%.

Question: For `CCn1nnnc1NC(=O)c1ccc(S(C)(=O)=O)c(OC)c1C` [Compound 5-166], which pest or weed control at 80 g/ha is on record?
Answer: Its pest or weed control at 80 g/ha is ≥ 80%.

Question: `CCn1nnnc1NC(=O)c1ccc(S(=O)(=O)CC)c(SC)c1C(F)(F)F` [Compound 5-598] was tested. Which pest or weed control at 80 g/ha did it give?
Answer: The pest or weed control at 80 g/ha was ≥ 80%.

Question: With `C#CCOc1c(S(C)(=O)=O)ccc(C(=O)Nc2nnnn2CC)c1Cl` [Compound 5-676] as the compound, how does the pest or weed control at 80 g/ha read?
Answer: Its pest or weed control at 80 g/ha is ≥ 80%.

Question: For `CCn1nnnc1NC(=O)c1ccc(C(F)(F)F)c(S(C)(=O)=O)c1C1CC1` [Compound 5-210], which pest or weed control at 80 g/ha is on record?
Answer: The pest or weed control at 80 g/ha was ≥ 80%.

Question: `CCn1nnnc1NC(=O)c1ccc(Cl)c(S(=O)(=O)CC)c1C` [Compound 5-124] was tested. Which pest or weed control at 80 g/ha did it give?
Answer: The pest or weed control at 80 g/ha was ≥ 80%.

Question: `CCCc1c(C(=O)Nc2nnnn2CC)ccc(Cl)c1[S+](C)[O-]` (stereo not drawn) [Compound 5-510] was tested. Which pest or weed control at 80 g/ha did it give?
Answer: Its pest or weed control at 80 g/ha is ≥ 80%.

Question: For `CCn1nnnc1NC(=O)c1ccc(C)c(SC)c1Cl` [Compound 5-614], which pest or weed control at 80 g/ha is on record?
Answer: Its pest or weed control at 80 g/ha is ≥ 80%.
